Laboratory results taken from paper PMC9217908, “Screening of commonly prescribed drugs for effects on the CAT1-mediated transport of L-arginine and arginine derivatives” (Amino Acids, 2022).
Read-outs that look alike come from different tables or passages of the source.

How the values were obtained:
Assay in all cases: cell-based
[1] = biological target: T1, CAT1 (cationic amino acid transporter 1, CAT1/SLC7A1) (Homo sapiens, UniProt P30825); set-up: species or system HEK-CAT1 (HEK293 stably transfected); Inhibition of net CAT1-mediated [3H]-L-arginine (100 uM) uptake, 5 min, scintillation counting, vector control subtracted; details: HEK293, L-arginine 100 uM as substrate; for inhibition at 20 µM: read-out: % Inhibition of L-arginine uptake at 20 µM; for inhibition at 200 µM: read-out: % Inhibition of L-arginine uptake at 200 µM
T1 construct: full-length human transporter stably transfected in HEK cells (HEK-CAT1); net uptake against HEK-VC vector control cells
Experimental: (§1) Uptake and inhibition assays using HEK-CAT1 and HEK-VC cells and L-arginine, L-homoarginine, and ADMA as substrates were performed using the protocol described (Strobel et al. [2012]; Chafai et al. [2017]). Briefly, after incubation, the supernatant was replaced with transport buffer containing [^3H]- L-arginine for 5 min and 2.5 min for medium containing [^3H]-L-homoarginine or [^3H]-ADMA with or without the test compound. The reference drugs were screened at concentrations of 20 µM (Figs. 1A, 2A, and 3A) and 200 µM (Figs. 1B, 2B, and 3B). […] The net uptake was determined by subtracting the total amount taken up by control cells from the amount taken up by CAT1-expressing cells, which was expressed as a percentage of the amount taken up by the control. To determine the inhibitory effects of the drugs on CAT1-mediated transport of L-arginine, L-homoarginine, or ADMA, the control was measured in the absence of the potential inhibitor. The value for the percent inhibition was calculated as: Inhibition (%) = 100 – (V/V0 ^* 100), where V and V0 are the net uptake rates (uptake into HEK-CAT1 cells—uptake into HEK-VC cells) with and without test drugs, respectively. […] Each bar represents the effect of one compound on CAT1-mediated L-arginine (100 μM) uptake as percent inhibition. Data were obtained from at least two independent experiments performed in triplicate (n = 6–9) and each test data from the independent experiment were normalized to the respective control data to get the value of percent inhibition. Negative inhibition values indicate stimulated CAT1-mediated uptake. Data were analyzed using one-way ANOVA and Dunnett’s multiple comparison test with p < 0.05. Bars showing a statistically significant inhibition or transport stimulation are shaded in black

[2] = biological target: T1, CAT1 (cationic amino acid transporter 1, CAT1/SLC7A1); set-up: species or system HEK-CAT1 (HEK293 stably transfected); Inhibition of net CAT1-mediated [3H]-L-homoarginine (1 uM) uptake, 2.5 min, scintillation counting, vector control subtracted; details: HEK293, L-homoarginine 1 uM as substrate; for inhibition at 20 µM: read-out: % Inhibition of L-homoarginine uptake at 20 µM; for inhibition at 200 µM: read-out: % Inhibition of L-homoarginine uptake at 200 µM
Experimental: as §1, with “L-homoarginine (1” for “L-arginine (100”

[3] = biological target: T1, CAT1 (cationic amino acid transporter 1, CAT1/SLC7A1); set-up: species or system HEK-CAT1 (HEK293 stably transfected); Inhibition of net CAT1-mediated [3H]-ADMA (1 uM) uptake, 2.5 min, scintillation counting, vector control subtracted; details: HEK293, ADMA 1 uM as substrate; for inhibition at 20 µM: read-out: % Inhibition of ADMA uptake at 20 µM; for inhibition at 200 µM: read-out: % Inhibition of ADMA uptake at 200 µM
Experimental: as §1, with “ADMA (1” for “L-arginine (100”

T1 sequence (P30825 whole entry): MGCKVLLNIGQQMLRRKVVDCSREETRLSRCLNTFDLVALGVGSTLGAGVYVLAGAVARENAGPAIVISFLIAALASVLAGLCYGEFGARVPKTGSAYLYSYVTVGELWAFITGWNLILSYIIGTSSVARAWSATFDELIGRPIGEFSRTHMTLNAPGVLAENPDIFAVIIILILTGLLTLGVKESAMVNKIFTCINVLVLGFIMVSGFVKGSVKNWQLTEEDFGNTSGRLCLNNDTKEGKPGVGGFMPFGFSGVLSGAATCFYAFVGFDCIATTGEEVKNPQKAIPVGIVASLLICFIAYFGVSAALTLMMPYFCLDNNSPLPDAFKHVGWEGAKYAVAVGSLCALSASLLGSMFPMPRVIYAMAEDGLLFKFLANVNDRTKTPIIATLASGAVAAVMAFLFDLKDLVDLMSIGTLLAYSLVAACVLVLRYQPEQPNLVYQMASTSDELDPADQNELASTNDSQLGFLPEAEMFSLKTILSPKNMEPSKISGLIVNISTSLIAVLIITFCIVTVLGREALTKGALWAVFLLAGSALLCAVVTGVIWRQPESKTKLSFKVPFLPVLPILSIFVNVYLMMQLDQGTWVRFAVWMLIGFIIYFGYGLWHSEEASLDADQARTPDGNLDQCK

inhibition at 20 µM [1] [%]	inhibition at 200 µM [1] [%]	inhibition at 20 µM [2] [%]	inhibition at 200 µM [2] [%]	inhibition at 20 µM [3] [%]	inhibition at 200 µM [3] [%]	Compound
-5.1 ± 3.6	-33.7 ± 1.4	-7.5 ± 2.1	-26.1 ± 0.6	-20.2 ± 5.9	-44.8 ± 7.4	CC(C)Cc1ccc(C(C)C(=O)O)cc1 (stereo not drawn) [Ibuprofen]
7.8 ± 1.8	2.9 ± 3.9	-4 ± 0.4	6.8 ± 0.6	-0.5 ± 5.8	6.1 ± 3.4	CNC(=C[N+](=O)[O-])NCCSCc1ccc(CN(C)C)o1 [Ranitidine]
0.08 ± 4.8	22.6 ± 5.7	-3.1 ± 1.6	15 ± 2.1	-4.3 ± 2.1	14.1 ± 4.1	CN(C)CCCN1c2ccccc2CCc2ccccc21 [Imipramine]
8.5 ± 4.8	-4.3 ± 2.7	13.9 ± 9.6	-9.5 ± 2.6	-0.1 ± 2.8	-9.9 ± 2.7	C[C@]12CCC(=O)C=C1CC[C@@H]1[C@@H]2[C@@H](O)C[C@@]2(C)[C@H]1CC[C@]2(O)C(=O)CO [Hydrocortisone]
23.9 ± 0.8	9.9 ± 8.2	7 ± 4.2	10.9 ± 2.6	6.4 ± 4.4	1.4 ± 9.6	CN1CCC(=C2c3ccccc3CC(=O)c3sccc32)CC1 [Ketotifen]
24.6 ± 0.6	-19.9 ± 4.4	8.5 ± 11.1	-15 ± 1.6	8.1 ± 11.4	5.6 ± 3.7	CC#C[C@]1(O)CC[C@H]2[C@@H]3CCC4=CC(=O)CCC4=C3[C@@H](c3ccc(N(C)C)cc3)C[C@@]21C [Mifepristone]
29.1 ± 2.8	2.7 ± 1	4.4 ± 6.2	5.9 ± 1.9	4.4 ± 6.2	-19.6 ± 7.7	C=C[C@H]1CN2CC[C@H]1C[C@@H]2[C@@H](O)c1ccnc2ccc(OC)cc12 [Quinidine]
13.5 ± 1.7	-34.8 ± 1.4	11 ± 0.5	-27.1 ± 2	7 ± 3.8	12.9 ± 4.1	CCCCc1nc(Cl)c(CO)n1Cc1ccc(-c2ccccc2-c2nnn[nH]2)cc1 [Losartan]
8.1 ± 3.1	31.4 ± 0.6	8.2 ± 3	30.4 ± 0.2	28.1 ± 0.9	-6 ± 0.5	N[C@@H](Cc1ccc(O)c(O)c1)C(=O)O [Levodopa]
7.7 ± 1.9	2.6 ± 3.7	-4.7 ± 2	0.8 ± 2.2	-3.1 ± 2	-16.6 ± 0.4	Cc1ncc([N+](=O)[O-])n1CCO [Metronidazole]

The remaining lines, values behind:

Compound	inhibition at 20 µM [1] [%]	inhibition at 200 µM [1] [%]	inhibition at 20 µM [2] [%]	inhibition at 200 µM [2] [%]	inhibition at 20 µM [3] [%]	inhibition at 200 µM [3] [%]
CN(C)C(=O)C(CCN1CCC(O)(c2ccc(Cl)cc2)CC1)(c1ccccc1)c1ccccc1 [Loperamide]	16.9 ± 2.3	-3.6 ± 2.1	18.9 ± 0.2	-2.7 ± 3.9	17.6 ± 1.6	1.4 ± 2.1
C[C@H]1O[C@@H](O[C@H]2[C@@H](O)C[C@H](O[C@H]3[C@@H](O)C[C@H](O[C@H]4CC[C@@]5(C)[C@H](CC[C@@H]6[C@@H]5C[C@@H](O)[C@]5(C)[C@@H](C7=CC(=O)OC7)CC[C@]65O)C4)O[C@@H]3C)O[C@@H]2C)C[C@H](O)[C@@H]1O [Digoxin]	-4.3 ± 7.3	-14.9 ± 17.8	-4.8 ± 6.8	-12.7 ± 0.8	-7.4 ± 5.9	14.4 ± 4.6
Nc1nc(NC2CC2)c2ncn([C@H]3C=C[C@@H](CO)C3)c2n1 [Abacavir]	-0.9 ± 1.81	-12.4 ± 6	-3.1 ± 2	-9.8 ± 1.7	-4.3 ± 2.2	-78.1 ± 1.9
O=C(O)CCCc1ccc(N(CCCl)CCCl)cc1 [Chlorambucil]	-23.3 ± 3.8	-43.3 ± 6.5	-18.6 ± 1.4	-41.6 ± 6.4	-5.1 ± 2.8	13.9 ± 4.4
COc1ccc([C@@H]2Sc3ccccc3N(CCN(C)C)C(=O)[C@@H]2OC(C)=O)cc1 [Diltiazem]	-7.3 ± 7.7	29.3 ± 2.5	8.6 ± 4.3	29 ± 2.6	8.5 ± 4.3	9.1 ± 7.7
NC12CC3CC(CC(C3)C1)C2 [Amantadine]	-14.2 ± 7.4	-76 ± 4.5	11.9 ± 5.6	-19.7 ± 2.6	5.3 ± 3	-5.7 ± 11.1
CCOc1nc2cccc(C(=O)O)c2n1Cc1ccc(-c2ccccc2-c2nnn[nH]2)cc1 [Candesartan]	14.5 ± 2.4	-18.8 ± 2.4	12.6 ± 2.2	-12.6 ± 3.8	-11.1 ± 0.9	8.1 ± 3.1
CCCC1O[C@@H]2C[C@H]3[C@@H]4CCC5=CC(=O)C=C[C@]5(C)[C@H]4[C@@H](O)C[C@]3(C)[C@]2(C(=O)CO)O1 (stereo partly drawn) [Budesonide]	-9.7 ± 7.8	-6.4 ± 3.9	-9.7 ± 5.5	-4.9 ± 6.5	-13.2 ± 3.7	-47.7 ± 6.5
C[C@@H]1CCC[C@H](C)N1NC(=O)c1ccc(Cl)c(S(N)(=O)=O)c1 [Clopamide]	4.5 ± 1.9	23.4 ± 2.5	-14.3 ± 2.1	14.3 ± 2.2	-11.1 ± 2.3	11.6 ± 6.5
